What was measured:
[1] = test system: Oshsp18.0 promoter; assay: Transient expression GUS activity assay, Oshsp18.0 promoter::GUS construct bombarded to rice coleoptiles; format: cell-based, Rice (Oryza sativa L. cv. Tainung No. 67); settings: 5 mM Aze, 4 hours treatment; GUS normalized against luciferase internal control; FIG. 3A
Description: (§1) The coleoptile of a etiolated rice seedling was cut from embryonic root and positioned on the middle of a 10-cm Petri dish containing MS salts supplemented with 0.6% (w/v) agarose and 3% (w/v) sucrose. The mixture (in a 1:1 molar ratio) of a test DNA construct and a maize ubiquitin-luciferase internal control construct were coated onto the gold particles as follows: under continuous vortexing, the following were added in order to each […] of 3 mg gold particles (Shen et al., 1996): 5 μL of DNA (1 μg DNA), 10 μL of 2.5 M CaCl2, and 4 μL of 0.1 M spermidine (free-based, tissue-culture grade). Gold microcarriers (1.6-μm particle size, 30 mg) in a microcentrifuge tube were vortexed with […] 70% (v/v) ethanol for 3˜5 minutes and kept till precipitation for about 15 minutes. Then, after centrifuging for 5 seconds, the supernatant was discarded and washed three times with 1 ml of sterile de-ionized water. The gold particles were resuspended in 500 μL 50% (w/v) glycerol, and then dispensed in 50-μL aliquots (3 mg/50 μL) kept in −20° C. The gold particles coated with DNA were pelleted in an bench-top Eppendorf centrifuge at maximum speed for 5 seconds, discarded the supernatant, washed once with 70% (v/v) ethanol following by absolute ethanol, and resuspended in 20 μL absolute ethanol. […]

[2] = test system: Oshsp17.3 promoter; assay: Transient expression GUS activity assay, Oshsp17.3 promoter::GUS construct bombarded to rice coleoptiles; format: cell-based, Rice (Oryza sativa L. cv. Tainung No. 67); settings: 5 mM Aze, 4 hours treatment; GUS normalized against luciferase internal control; FIG. 3A
Description: as §1

[3] = test system: bidirectional promoter of SEQ ID NO:5; settings: 5% ethanol treatment; control coleoptiles under 28° C.; FIG. 3B
Description: as §1

Row | SMILES | induction of promoter (normalized GUS activity) [1] | induction of promoter (normalized GUS activity) [2] | expression of reporter gene (GUS staining) [3]
1 | O=C(O)C1CCN1 (stereo not drawn) [Aze] | at least 7 fold | at least 7 fold | 
2 | CCO [ethanol] |  |  | much more amount of reporter gene
